Assay [1] has as its system Propionibacterium acnes NCTC 737. Nature of the assay: MIC/MBC 96-well plate broth micro-dilution assay. The format is cell-based. Particulars: for MBC / MIC: Cutibacterium acnes. How it is done:
The anaerobic cutaneous propionibacteria e.g. Propionibacterium acnes are implicated in the pathogenesis of acne vulgaris. The test organism Propionibacterium acnes is classified as a ‘Type’ strain for the species. […] MIC determinations were carried out using a standard 96-well plate broth micro-dilution assay. Wilkins-Chalgren anaerobe broth at pH 6 and pH 7.1±0.2 was used for P. acnes. […] The test range for the control compounds varied depending on known activity levels. […] Benzoyl peroxide and erythromycin were used as control compounds in P. acnes assays. Benzoyl peroxide and erythromycin were both dissolved in ethanol.
A general note: Broth dilution looks for growth in wells or tubes with falling amounts of substance.

In a further assay the test system is sebum production. Nature of the assay: Sebum production study in healthy male volunteers (Sebumeter). It is filed as in vivo. Particulars: for Sebum Production Maximum % Reduction LS Means: compared to placebo, healthy male volunteers. How it is done:
The study examined the effects of oxybutynin on sebum production in 9 healthy male volunteers. This was double-blind, randomised, placebo-controlled dose study
The subjects were assessed on each dosing occasion for sebum production pre-dose and 1 h, 2.5 h, 4 h and 6 h post-dose. Skin sebum excretion rates were determined using a Sebumeter® (Optical measurement of sebum excretion using opalescent film imprint, 2006, Handbook of non-invasive methods and the skin, Second Edition). Vital signs were recorded at specified times during each study period and adverse events were reported throughout.
For each subject, the maximum % reduction in sebum production compared to placebo was calculated for each dose level. Using this information, a mixed effects regression analysis of the % reduction in sebum versus dose with subject as a random effect was performed.

[2] abbreviates: NCTC737, pH 6, Wilkins-Chalgren agar, mean of minimum 4 replicates, read-out: MBC.
Setting [3] is: NCTC737, pH 6, Wilkins-Chalgren anaerobe broth, mean of minimum 4 replicates, read-out: MIC.
Where [4] appears, read: NCTC737, pH 7.1 ± 0.2, Wilkins-Chalgren agar, mean of minimum 4 replicates, read-out: MBC.
Where [5] appears, read: NCTC737, pH 7.1 ± 0.2, Wilkins-Chalgren anaerobe broth, mean of minimum 4 replicates, read-out: MIC.

The text below walks through data of US20100184727A1, “TREATMENT OF EXCESS SEBUM PRODUCTION” (SUMMIT (CAMBRIDGE) LIMITED, priority 2006, published 2010).

SMILES strings stand for the structures. Converted amounts (≈) assume the structure as drawn. Where a name gives a salt, the structure may show the parent alone. Read-outs that look alike come from different tables or passages of the source.

For the compound `O=C(OOC(=O)c1ccccc1)c1ccccc1` [Benzoyl peroxide], the MBC in assay [1] (NCTC737, pH 6) is 62.5 µg/mL (≈ 258 µM); in assay [1] (NCTC737, pH 7.1) it was 62.5 µg/mL (≈ 258 µM). For the same compound, the MIC in assay [1] (NCTC737, pH 6) came out at 31.2 µg/mL (≈ 129 µM); in assay [1] (NCTC737, pH 7.1), 31.2 µg/mL (≈ 129 µM).
For the compound `NC(=O)C(c1ccccc1)(c1ccccc1)[C@@H]1CCN(CCc2ccc3c(c2)CCO3)C1` [Darifenacin hydrobromide, darifenacin hydrobromide], the values for the MBC in assay [1] (setting [2]) and in assay [1] (setting [4]) were 1000 µg/mL and 500 µg/mL, respectively. Moreover, the MIC in assay [1] (setting [3]) and in assay [1] (setting [5]) was 500 µg/mL each time. The “Antimicrobial activity against P. acnes (in words)” value in assay [1] (pH 6) and in assay [1] (pH 7.1±0.2) was “some moderate antimicrobial activity” each time.
Consider `CC[C@H]1OC(=O)[C@H](C)[C@@H](O[C@H]2C[C@@](C)(OC)[C@@H](O)[C@H](C)O2)[C@H](C)[C@@H](O[C@@H]2O[C@H](C)C[C@H](N(C)C)[C@H]2O)[C@](C)(O)C[C@@H](C)C(=O)[C@H](C)[C@@H](O)[C@]1(C)O` [Erythromycin], for which the MBC in assay [1] (setting [2]) and in assay [1] (setting [4]) was greater than 2.5 µg/mL in each case. For the same compound, the MIC in assay [1] (setting [3]) worked out at 0.63 µg/mL (≈ 0.858 µM); in assay [1] (setting [5]), 0.313 µg/mL (≈ 0.426 µM).
Consider `CCN(CC)CC#CCOC(=O)C(O)(c1ccccc1)C1CCCCC1` (stereo not shown) [Oxybutynin chloride, oxybutynin chloride], for which the MBC in assay [1] (setting [2]) worked out at 1000 µg/mL; in assay [1] (setting [4]), 500 µg/mL. The MIC in assay [1] (setting [3]) and in assay [1] (setting [5]) was 500 µg/mL throughout. Moreover, the “Antimicrobial activity against P. acnes (in words)” value in assay [1] (pH 6) and in assay [1] (pH 7.1±0.2) was “some moderate antimicrobial activity” each time.
Take `CCN(CC)CC#CCOC(=O)C(O)(c1ccccc1)C1CCCCC1` (stereo not shown) [oxybutynin]: the “Sebum Production Maximum % Reduction LS Means” value is recorded as 21.59% with sebum production (dose 1 mg), −16.94% in the assay with sebum production (dose 2 mg), −34.74% in the assay with sebum production (dose 5 mg) and −75.52% in the assay on sebum production (dose 10 mg). In addition, the “Effect on sebum production (in words)” value with sebum production (following administration of 2 mg, 5 mg and 10 mg) is on record as “decreased with dose”.

The MBC is the smallest concentration meeting the test's criterion for killing. In general, MIC refers to the lowest concentration found to suppress growth.
